Assay results reported in patent US7576053B2, “Methods and compositions for treating degenerative bone disorders” (Rigel Pharmaceuticals, Inc., priority 2005, dated 2009).

Legend:
Format in all cases: in vivo
[1] = test system: rat collagen induced arthritis (CIA) model; experiment: Rat collagen induced arthritis (CIA) model, hindlimb radiographs scored blindly; conditions: b.i.d., 18 days of treatment
Text: Data are the means±standard error, where n=13 per group, except for naïve (n=4). Radiographs of hindlimbs were obtained at the conclusion of the study and scored blindly. […] To examine effect of Syk inhibitor 2,4-pyrimidinediamine compound in preventing bone degeneration, a rat collagen induced arthritis model was used (see, e.g., WO 2004/014382, incorporated herein by reference). Rats were immunized with bovine collagen II on day 0 and boosted on day 7. […] Animals were subsequently treated b.i.d. with inhibitor compound or vehicle alone. After 18 days of treatment, hind paw bone structure and integrity were evaluated by X-rays, histopathology, and serum bone marker COMP.

[2] = test system: rat collagen induced arthritis (CIA) model; experiment: Rat CIA model, histopathology of hind paw bone sections (safranin-O)
Text: Upper left—naïve rat; upper right—vehicle rat; lower left—vehicle rat; lower right—compound 1007 treated rat. Micrographs are safranin-O stained sections of hind ankle paws of CIA rats, magnification 40×. To examine effect of Syk inhibitor 2,4-pyrimidinediamine compound in preventing bone degeneration, a rat collagen induced arthritis model was used (see, e.g., WO 2004/014382, incorporated herein by reference). Rats were immunized with bovine collagen II on day 0 and boosted on day 7. […] Animals were subsequently treated b.i.d. with inhibitor compound or vehicle alone. After 18 days of treatment, hind paw bone structure and integrity were evaluated by X-rays, histopathology, and serum bone marker COMP.

[3] = test system: cartilage oligometrix matrix protein (COMP); experiment: Rat CIA model, serum bone marker COMP; conditions: FIG. 4
Experimental: To examine effect of Syk inhibitor 2,4-pyrimidinediamine compound in preventing bone degeneration, a rat collagen induced arthritis model was used (see, e.g., WO 2004/014382, incorporated herein by reference). Rats were immunized with bovine collagen II on day 0 and boosted on day 7. […] Animals were subsequently treated b.i.d. with inhibitor compound or vehicle alone. After 18 days of treatment, hind paw bone structure and integrity were evaluated by X-rays, histopathology, and serum bone marker COMP.

COc1cc(Nc2ncc(F)c(Nc3ccc4c(n3)NC(=O)C(C)(C)O4)n2)cc(OC)c1OC [compound 1007, N4-(2,2-dimethyl-3-oxo-4H-5-pyrid[1,4]oxazin-6-yl)-5-fluoro-N2-(3,4,5-trimethoxyphenyl)-2,4-pyrimidinediamine]
bone erosion (radiograph score of hind paws) ([1]; 10 mg/kg, p<0.05): significant reduction in bone erosion
bone erosion (radiograph score of hind paws) ([1]; 30 mg/kg, p<0.001): significant reduction in bone erosion
severity of bone destruction (histopathological assessment of bone sections) ([2]; FIG. 2): significant reduction in severity of bone destruction
bone erosion (safranin-O stained sections of hind ankle paws) ([2]; FIG. 3, magnification 40x): reduction
osteoclast activity (safranin-O stained sections of hind ankle paws) ([2]; FIG. 3, magnification 40x): reduction
pannus formation (safranin-O stained sections of hind ankle paws) ([2]; FIG. 3, magnification 40x): reduction
serum levels of cartilage oligometrix matrix protein (COMP), a marker for collagen destruction [3]: reduction
